Data as given in ChEMBL document CHEMBL4024727, “Synthesis and antimycobacterial screening of new thiazolyl-oxazole derivatives” (Eur J Med Chem, 2017).
Converted amounts (≈) assume the structure as drawn.

Columns and labels:
[1] = tested on: Mycobacterium tuberculosis; experiment: Growth inhibition of Mycobacterium tuberculosis H37Ra ATCC 25177 at 30 ug/ml by XTT dye based two-fold dilution method relative to control; assay type: functional; conditions: read-out: GI
[2] = tested on: Mycobacterium tuberculosis; experiment: Growth inhibition of Mycobacterium tuberculosis H37Ra ATCC 25177 at 10 ug/ml by XTT dye based two-fold dilution method relative to control; assay type: functional; conditions: read-out: GI
[3] = tested on: Mycobacterium tuberculosis; experiment: Growth inhibition of Mycobacterium tuberculosis H37Ra ATCC 25177 at 3 ug/ml by XTT dye based two-fold dilution method relative to control; assay type: functional; conditions: read-out: GI
[4] = tested on: Mycobacterium tuberculosis; experiment: Growth inhibition of Mycobacterium bovis BCG ATCC 35743 at 30 ug/ml by nitrate reductase based two-fold dilution assay relative to control; assay type: functional; conditions: BCG str. ATCC 35743, read-out: GI
[5] = tested on: Mycobacterium tuberculosis; experiment: Growth inhibition of Mycobacterium bovis BCG ATCC 35743 at 10 ug/ml by nitrate reductase based two-fold dilution assay relative to control; assay type: functional; conditions: BCG str. ATCC 35743, read-out: GI
[6] = tested on: Mycobacterium tuberculosis; experiment: Growth inhibition of Mycobacterium bovis BCG ATCC 35743 at 1 ug/ml by nitrate reductase based two-fold dilution assay relative to control; assay type: functional; conditions: BCG str. ATCC 35743, read-out: GI
[7] = tested on: Mycobacterium tuberculosis; experiment: Antitubercular activity against Mycobacterium tuberculosis H37Ra ATCC 25177 dormant stage by XTT dye based two-fold dilution method; assay type: functional
[8] = tested on: Mycobacterium tuberculosis; experiment: Antitubercular activity against Mycobacterium bovis BCG ATCC 35743 dormant stage by nitrate reductase based two-fold dilution assay; assay type: functional; conditions: BCG str. ATCC 35743
[9] = tested on: Escherichia coli; experiment: Growth inhibition of Escherichia coli NCIM 2576 at 30 ug/ml measured after 8 hrs relative to control; assay type: functional; conditions: NCIM 2576, 8 h, read-out: GI
[10] = tested on: Escherichia coli; experiment: Growth inhibition of Escherichia coli NCIM 2576 at 10 ug/ml measured after 8 hrs relative to control; assay type: functional; conditions: NCIM 2576, 8 h, read-out: GI
[11] = tested on: Escherichia coli; experiment: Growth inhibition of Escherichia coli NCIM 2576 at 1 ug/ml measured after 8 hrs relative to control; assay type: functional; conditions: NCIM 2576, 8 h, read-out: GI
[12] = tested on: Pseudomonas fluorescens; experiment: Growth inhibition of Pseudomonas fluorescens NCIM 2059 at 30 ug/ml measured after 8 hrs relative to control; assay type: functional; conditions: NCIM 2059, 8 h, read-out: GI
[13] = tested on: Pseudomonas fluorescens; experiment: Growth inhibition of Pseudomonas fluorescens NCIM 2059 at 10 ug/ml measured after 8 hrs relative to control; assay type: functional; conditions: NCIM 2059, 8 h, read-out: GI
[14] = tested on: Pseudomonas fluorescens; experiment: Growth inhibition of Pseudomonas fluorescens NCIM 2059 at 1 ug/ml measured after 8 hrs relative to control; assay type: functional; conditions: NCIM 2059, 8 h, read-out: GI
[15] = tested on: Staphylococcus aureus; experiment: Growth inhibition of Staphylococcus aureus NCIM 2602 at 30 ug/ml measured after 12 hrs relative to control; assay type: functional; conditions: NCIM 2602, 12 h, read-out: GI
[16] = tested on: Staphylococcus aureus; experiment: Growth inhibition of Staphylococcus aureus NCIM 2602 at 10 ug/ml measured after 12 hrs relative to control; assay type: functional; conditions: NCIM 2602, 12 h, read-out: GI
[17] = tested on: Staphylococcus aureus; experiment: Growth inhibition of Staphylococcus aureus NCIM 2602 at 1 ug/ml measured after 12 hrs relative to control; assay type: functional; conditions: NCIM 2602, 12 h, read-out: GI
[18] = tested on: Bacillus subtilis; experiment: Growth inhibition of Bacillus subtilis NCIM 2162 at 30 ug/ml measured after 12 hrs relative to control; assay type: functional; conditions: NCIM 2162, 12 h, read-out: GI
[19] = tested on: Bacillus subtilis; experiment: Growth inhibition of Bacillus subtilis NCIM 2162 at 10 ug/ml measured after 12 hrs relative to control; assay type: functional; conditions: NCIM 2162, 12 h, read-out: GI
[20] = tested on: Bacillus subtilis; experiment: Growth inhibition of Bacillus subtilis NCIM 2162 at 1 ug/ml measured after 12 hrs relative to control; assay type: functional; conditions: NCIM 2162, 12 h, read-out: GI
[21] = tested on: Escherichia coli; experiment: Antibacterial activity against Escherichia coli NCIM 2576 measured after 8 hrs; assay type: functional; conditions: NCIM 2576, 8 h
[22] = tested on: Pseudomonas fluorescens; experiment: Antibacterial activity against Pseudomonas fluorescens NCIM 2059 measured after 8 hrs; assay type: functional; conditions: NCIM 2059, 8 h
[23] = tested on: Staphylococcus aureus; experiment: Antibacterial activity against Staphylococcus aureus NCIM 2602 measured after 12 hrs; assay type: functional; conditions: NCIM 2602, 12 h
[24] = tested on: Bacillus subtilis; experiment: Antibacterial activity against Bacillus subtilis NCIM 2162 measured after 12 hrs; assay type: functional; conditions: NCIM 2162, 12 h
[25] = (§1) Growth inhibition of human HeLa cells by MTT assay; assay type: cell-based; conditions: HeLa cells
[26] = tested on: HeLa; experiment: as §1; assay type: cell-based; conditions: hela
[27] = (§2) Growth inhibition of human A549 cells by MTT assay; assay type: cell-based; conditions: A549 cells
[28] = tested on: A549; experiment: as §2; assay type: cell-based; conditions: a549
[29] = (§3) Growth inhibition of human PANC1 cells by MTT assay; assay type: cell-based, PANC-1; conditions: PANC-1 cells
[30] = tested on: PANC-1; experiment: as §3; assay type: cell-based; conditions: panc-1
[31] = Selectivity index, ratio of GI50 for human HeLa cells to MIC for Mycobacterium tuberculosis H37Ra ATCC 25177 dormant stage; assay type: toxicity, cell-based; conditions: read-out: Selectivity Index
[32] = Selectivity index, ratio of GI50 for human HeLa cells to MIC for Mycobacterium bovis BCG ATCC 35743 dormant stage; assay type: toxicity, cell-based; conditions: read-out: Selectivity Index
[33] = Selectivity index, ratio of GI50 for human A549 cells to MIC for Mycobacterium tuberculosis H37Ra ATCC 25177 dormant stage; assay type: toxicity; conditions: read-out: Selectivity Index
[34] = Selectivity index, ratio of GI50 for human A549 cells to MIC for Mycobacterium bovis BCG ATCC 35743 dormant stage; assay type: toxicity; conditions: read-out: Selectivity Index
[35] = Selectivity index, ratio of GI50 for human PANC1 cells to MIC for Mycobacterium tuberculosis H37Ra ATCC 25177 dormant stage; assay type: toxicity; conditions: PANC-1 cells, read-out: Selectivity Index
[36] = Selectivity index, ratio of GI50 for human PANC1 cells to MIC for Mycobacterium bovis BCG ATCC 35743 dormant stage; assay type: toxicity; conditions: PANC-1 cells, read-out: Selectivity Index

Compound | inhibition of growth at 30 µg/mL [1] [%] | inhibition of growth at 10 µg/mL [2] [%] | inhibition of growth at 3 µg/mL [3] [%] | inhibition of growth at 30 µg/mL [4] [%] | inhibition of growth at 10 µg/mL [5] [%] | inhibition of growth at 1 µg/mL [6] [%] | IC50 [7] [µM] | MIC90 [7] [µM] | IC50 [8] [µM] | MIC90 [8] [µM] | inhibition of growth at 30 µg/mL [9] [%] | inhibition of growth at 10 µg/mL [10] [%] | inhibition of growth at 1 µg/mL [11] [%] | inhibition of growth at 30 µg/mL [12] [%] | inhibition of growth at 10 µg/mL [13] [%] | inhibition of growth at 1 µg/mL [14] [%] | inhibition of growth at 30 µg/mL [15] [%] | inhibition of growth at 10 µg/mL [16] [%] | inhibition of growth at 1 µg/mL [17] [%] | inhibition of growth at 30 µg/mL [18] [%] | other results
Cc1nc(-c2ccc(F)cc2)oc1-c1csc(Cc2ccccc2)n1 | 99 | 94 | 95 | 97 | 96 | 97 | 0.49 | 6.2 (≈ 2.17 µg/mL) | 0.54 | 7.33 (≈ 2.57 µg/mL) | 94 | 90.3 | 88.8 | 99.6 | 92.4 | 87 | 98.5 | 95.9 | 93.9 | 99.9 | inhibition of growth at 10 µg/mL [19]: 95.8%; inhibition of growth at 1 µg/mL [20]: 91.2%; MIC [21]: 20.6 µM (≈ 7.2 µg/mL); MIC [22]: 19.1 µM (≈ 6.7 µg/mL); MIC [23]: 6.85 µM (≈ 2.4 µg/mL); MIC [24]: 5.99 µM (≈ 2.1 µg/mL); GI50 [25]: 148 µg/mL (≈ 423 µM); GI90 [26]: 248.63 µg/mL (≈ 710 µM); GI50 [27]: > 250 µg/mL; GI90 [28]: > 250 µg/mL; GI50 [29]: > 250 µg/mL; GI90 [30]: > 250 µg/mL; selectivity ratio [31]: 68; selectivity ratio [32]: 58; selectivity ratio [33]: 115; selectivity ratio [34]: 97; selectivity ratio [35]: 115; selectivity ratio [36]: 97
Cc1nc(-c2ccccc2)oc1-c1csc(-c2ccccc2)n1 | 93 | 71 | 56 | 92 | 63 | 63 | 8.66 | 87.5 (≈ 27.9 µg/mL) | 7.34 | 85.9 (≈ 27.4 µg/mL) | 98.2 | 94.2 | 91.2 | 97.7 | 93.4 | 88.9 | 94.2 | 89.9 | 85.7 | 96.8 | inhibition of growth at 10 µg/mL [19]: 93.2%; inhibition of growth at 1 µg/mL [20]: 91.3%; MIC [21]: 7.54 µM (≈ 2.4 µg/mL); MIC [22]: 13.8 µM (≈ 4.4 µg/mL); MIC [23]: 39.3 µM (≈ 12.5 µg/mL); MIC [24]: 7.91 µM (≈ 2.52 µg/mL); GI50 [25]: 123 µg/mL (≈ 387 µM); GI90 [26]: > 250 µg/mL; GI50 [27]: > 250 µg/mL; GI90 [28]: > 250 µg/mL; GI50 [29]: > 250 µg/mL; GI90 [30]: > 250 µg/mL; selectivity ratio [31]: 4; selectivity ratio [32]: 5; selectivity ratio [33]: 9; selectivity ratio [34]: 9; selectivity ratio [35]: 9; selectivity ratio [36]: 9
